Laboratory results from patent US8673930B2, “Pyrimidylaminobenzamide derivatives for systemic mastocytosis” (Novartis AG, priority 2005, dated 2014).

Columns and labels:
GIST882 cells = assay: GIST882 cell proliferation assay (ATPLite luminescent ATP detection); assay type: cell-based; conditions: Homo sapiens; GIST882 cells (KIT K-642-E), 70 h incubation, mean value; read-out: mean IC50, inhibition of proliferation of GIST882 cells
Method: The effects of compounds on viability and proliferation of the cells is determined using the luminescent ATP Detection assay kit ATPLite™ from Perkin Elmer Life Sciences (Cat. No: 6016947) according to the instructions of the suppliers. This assay system is based on the production of light (luminescence) caused by the reaction of ATP with added luciferase and D-luciferin.
GIST882, is a human gastrointestinal stromal tumor (GIST) cell line expressing an activating KIT mutation (exon 13, K-642-E) (Tuveson D A, Willis N A, Jacks T, Griffin J D, Singer S, Fletcher C D, Fletcher J A, Demetri G D, STI571 inactivation of the gastrointestinal stromal tumor c-KIT oncoprotein: biological and clinical implications, Oncogene, 2001 Aug. 16; 20(36):5054-8). The GIST882 cells are cultivated in RPMI 1640 (Invitromex, Cat. No: L0501), supplemented with 15% FCS, and 2 mM glutamine (Gibco). […]
GIST882 cells are seeded into black 96-well tissue culture plates (Packard) at a density of 10000 cells per well in 50 μL complete medium and incubated for one day in order to allow for attachment of the cells. […] Subsequently, 50 μL substrate solution (luciferase and D-luciferin) is added and after 5 min shaking and 10 min dark-adaptation of the plates, light emission was measured with a Packard TopCount. […]

[1] = tested on: systemic mastocytosis (SM) patients; assay: Phase II open-label study in SM patients; assay type: in vivo, human; conditions: 400 mg orally twice daily, first 23 pts, preliminary data
Method: A Phase II, open-label study was designed to evaluate the safety and efficacy of Compound (II) administered orally 400 mg twice daily. SM patients meeting specific disease criteria and with a clinical indication for treatment were enrolled. The results are based on preliminary data for the first 23 pts in this study. Results: The median age was 49 (range 33-78) yrs and the median time from diagnosis of SM was 27 (range 1 to 292) months. […] The median exposure to Compound (II) was 144 days. Treatment is ongoing for 18 (78%) pts; 5 (22%) discontinued, 3 (13%) for adverse events and 2 (9%) withdrew consent. Three (13%) responses were reported (2 incomplete remission and 1 minor response), based on serum tryptase, bone marrow mast cell counts and improvement of clinical symptoms.

## Cc1cn(-c2cc(NC(=O)c3ccc(C)c(Nc4nccc(-c5cccnc5)n4)c3)cc(C(F)(F)F)c2)cn1 [Compound (II), 4-methyl-3-[[4-(3-pyridinyl)-2-pyrimidinyl]amino]-N-[5-(4-methyl-1H-imidazol-1-yl)-3-(trifluoromethyl)phenyl]benzamide]
GIST882 cells
  IC50: < 200 nM
[1]; median exposure 144 days
  discontinued for adverse events: 13%
[1]
  safety and tolerability in pts with SM: acceptable safety and tolerability profile
[1]; 2 incomplete remission and 1 minor response
  responses (based on serum tryptase, bone marrow mast cell counts and improvement of clinical symptoms): 13%
